Experimental data as given in PMC6769459, “Inhibition of Tyrosine-Phosphorylated STAT3 in Human Breast and Lung Cancer Cells by Manuka Honey is Mediated by Selective Antagonism of the IL-6 Receptor” (International Journal of Molecular Sciences, 2019).
Several values for one entry are separate records, joined by “and”; a condition that tells them apart may be missing. Identical values can stand only once. Entries after “also recorded” stand apart in the source; their conditions may differ.

Columns and labels:
[1] = test system: p-STAT3 in MDA-MB-231 cells; test: Western blot of p-STAT3 / total STAT3 in MDA-MB-231 cells; type: cell-based, human; settings: for IC50: Homo sapiens, MDA-MB-231, 1 h, MDA-MB-231, 1 h treatment, densitometry of Western blots, approximate, read-out: IC50 for inhibition of p-STAT3 levels
Description: The expression of different proteins involved in IL-6 signaling pathway was analyzed by Western blots, as previously described. Briefly, MDA-MB-231 or A549 cells (2 × 10^6 cells/well) were seeded overnight in DMEM/RPMI plus 2% FBS, followed by incubation with MH or sugar control (SC) in 5% FBS-DMEM/RPMI for different times, as indicated in the figures. In some studies, we investigated the effect of treatment with different flavonoid compounds on p-STAT3 expression using a range of doses (0.4–50 μM). In other experiments, we also studied the effect of incubating MDA-MB-231 cells in the presence of Brefeldin A (BFA; 1 mg/mL) alone or with 1% MH for 4 h on p-STAT3 levels. Cell extracts were prepared in RIPA buffer and subjected to Western blot analysis using antibodies (purchased from Cell Signaling Technology, Danvers, MA, USA) specific to total STAT3 (t-STAT3), tyrosine-phosphorylated (Tyr705) STAT3 (p-STAT3), gp130, JAK2, tyrosine-phosphorylated (Tyr1007/1008) JAK2 (p-JAK2), tyrosine-phosphorylated (Tyr416) Src family (p-Src), total Src, and β-actin. Densitometric analysis of the band intensity on the blots was done using ImageJ (National Institutes of Health, USA). We modeled the binding inhibition pharmacodynamics of p-STAT3 levels as standard drug-receptor interactions based on mass-action kinetics. Specifically, dose response was modelled as: Y=[L]/[L]+K where Y is the receptor occupancy, L is the ligand concentration, and K is a compound-specific association constant.
Statistical significance between control and treated groups was analyzed using the unpaired, two-tailed Student’s t-test, using the statistical program of GraphPad Prism version 6 software (San Diego, CA, USA). For multiple comparisons, we used ordinary two-way ANOVA (GraphPad Prism). Differences between the experimental groups were considered significant when p values were <0.05. Nonlinear regression best-fit curve analysis was used to determine the IC50 for p-STAT3 inhibition.

[2] = test system: p-STAT3 in human bladder cancer cells; design: method as in PMID 29805643; settings: 40–80 μM, mostly after 24 h; cited from earlier work
IL-6Rα = molecular target: T1, IL-6Rα (Homo sapiens, UniProt P08887); test: ELISA-based competitive binding assay, IL-6 binding to immobilized IL-6Rα
T1 construct: purchased R&D Systems
T1 sequence (P08887 20-355 limits assumed): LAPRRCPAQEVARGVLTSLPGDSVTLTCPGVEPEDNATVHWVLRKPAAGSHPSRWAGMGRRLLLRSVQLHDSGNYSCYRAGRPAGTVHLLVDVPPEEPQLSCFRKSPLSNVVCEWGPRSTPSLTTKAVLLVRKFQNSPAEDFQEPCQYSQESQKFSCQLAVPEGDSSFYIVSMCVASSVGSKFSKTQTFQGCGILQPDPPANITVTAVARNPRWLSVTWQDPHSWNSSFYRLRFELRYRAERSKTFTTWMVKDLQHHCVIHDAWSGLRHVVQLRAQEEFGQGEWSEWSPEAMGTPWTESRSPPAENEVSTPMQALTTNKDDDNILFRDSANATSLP
Description: We used an ELISA-based assay to determine if MH can bind to recombinant IL-6Rα, IL-8R, and IL-11Rα proteins (all purchased from R&D Systems; Minneapolis, MN, USA). IL-6Rα (2 μg/mL), IL-8R (0.5 μg/mL), or IL-11Rα (1 μg/mL) proteins were coated on 96-well plates by overnight incubation at 4 °C. The plates were then washed with PBS + 0.05% tween 20 and blocked with PBS containing 1% BSA for 1 h at room temperature. For competition assay, various concentrations of MH (0.03–3%) were added to recombinant receptor-coated plates and incubated for 1 h at room temperature. After thorough washing, recombinant IL-6, IL-8, or IL-11 cytokines were added (50 ng/mL) and incubated for 1 h at 37 °C. The plates were then thoroughly washed and biotin-conjugated mAbs to IL-6 (0.25 µg/mL), IL-8 (0.5 µg/mL) or IL-11 (0.5 µg/mL) were added for 1 h at room temperature. After another round of washing, HRP-conjugated streptavidin was added for 30 min, washed, and developed by adding 3,3′,5,5′-Tetramethylbenzidine (TMB) substrate for 10 min. Additionally, the potential effect of flavonoid compounds (luteolin, quercetin, galangin, and chrysin; dose range 0.5–50 μM) on binding to IL-6Rα was investigated in the same assay. The dose-response was modeled based on mass-action kinetic drug-response interactions.

[3] = test system: STAT3 in different types of cancer cells; design: method as in PMID 16651438, PMID 23145121, PMID 24525192, PMID 24998588, PMID 26527884; settings: different cancer cell types; cited from earlier work
[4] = test system: p-STAT3 in lung cancer cells; design: method as in PMID 25830055; settings: 66 μM, 12–24 h; cited from earlier work
[5] = 10-fold lower concentration (5 μM)

SMILES	IC50 [1]	inhibition of IL-6 binding to IL-6Rα (IL-6Rα; 50 μM flavonoid) [%]	inhibition of IL-6 binding to IL-6Rα (IL-6Rα; [5])	p-STAT3 levels ([1]; MDA-MB-231, 4 h, Brefeldin A 1 mg/mL alone or with 1% MH)	p-STAT3 [2]	concentration range at which inhibitory effects were observed [3] [µM]	binding to IL-6Rα (IL-6Rα; up to 50 μM)	p-STAT3 levels [4]
C[C@H]1CCC/C=C/[C@@H]2C[C@H](O)C[C@H]2[C@H](O)/C=C/C(=O)O1 [Brefeldin A]	–	–	–	significant loss	–	–	–	–
O=c1cc(-c2ccccc2)oc2cc(O)cc(O)c12 [chrysin]	~7.7 µM and 2 µg/mL	31.8	decreased but significant inhibition	–	inhibit p-STAT3	–	–	–
O=c1cc(-c2ccc(O)c(O)c2)oc2cc(O)cc(O)c12 [luteolin]	~3.5 µM and 1 µg/mL	22.4	–	–	–	20 to 50	–	–
O=c1c(O)c(-c2ccc(O)c(O)c2)oc2cc(O)cc(O)c12 [quercetin]	~51 µM and 15.4 µg/mL	29.2	decreased but significant inhibition	–	–	–	–	reduce p-STAT3 levels

More lines, main results first:

IC50 [1]	inhibition of IL-6 binding to IL-6Rα (IL-6Rα; 50 μM flavonoid) [%]	inhibition of IL-6 binding to IL-6Rα (IL-6Rα; [5])	SMILES	p-STAT3 levels ([1]; MDA-MB-231, 4 h, Brefeldin A 1 mg/mL alone or with 1% MH)	p-STAT3 [2]	concentration range at which inhibitory effects were observed [3] [µM]	binding to IL-6Rα (IL-6Rα; up to 50 μM)	p-STAT3 levels [4]
~4.4 µM and 1.2 µg/mL	34.3	decreased but significant inhibition	O=c1c(O)c(-c2ccccc2)oc2cc(O)cc(O)c12 [galangin]	–	–	–	–	–
~70.2 µM and 18 µg/mL	–	–	O=C1C[C@@H](c2ccccc2)Oc2cc(O)cc(O)c21 [pinocembrin]	–	–	–	no significant binding; also recorded: inability to detect any binding	–
